From PubChem BioAssay (NCI)
“And” between values parts separate entries of the source, which are not always exact repeats. Equal values may be shown once.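 96-well plates; 48 h exposure; 5 concentrations. Endpoints by linear interpolation between flanking doses. Not reached: highest tested concentration assigned. Abbreviation: GI50, concentration required for 50% inhibition of growth. The concentration for full growth arrest is given as TGI.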

How the values were obtained:
Assay in all cases: NCI-60 cell line screen, 48 h
OVCAR-3 ovarian = tested on: OVCAR-3 ovarian
786-0 renal = tested on: 786-0 renal
SF-268 CNS = tested on: SF-268 CNS
SF-295 CNS = tested on: SF-295 CNS
CCRF-CEM leukemia = tested on: CCRF-CEM leukemia
SK-MEL-28 melanoma = tested on: SK-MEL-28 melanoma
SW-620 colon = tested on: SW-620 colon
TK-10 renal = tested on: TK-10 renal
MDA-MB-435 = tested on: MDA-MB-435
SK-MEL-5 melanoma = tested on: SK-MEL-5 melanoma

## COc1ccc(-c2nnc(N3CCN(C(=O)CN4CCN(c5ccccc5)CC4)CC3)nc2-c2ccc(OC)cc2)cc1
OVCAR-3 ovarian
  GI50: 3.39 µM
  TGI: > 100 µM
786-0 renal
  GI50: 5.37 µM
  TGI: 29.3 µM
SF-268 CNS
  GI50: 83.4 µM
  TGI: > 100 µM
SF-295 CNS
  GI50: 5.83 µM
  TGI: 47.7 µM
CCRF-CEM leukemia
  GI50: 5.19 µM
  TGI: > 100 µM
SK-MEL-28 melanoma
  GI50: 14.3 µM
  TGI: > 100 µM
SW-620 colon
  GI50: 5.26 µM
  TGI: > 100 µM
TK-10 renal
  GI50: 3.52 µM
  TGI: 47.6 µM
MDA-MB-435
  GI50: 6.09 µM
  TGI: > 100 µM
SK-MEL-5 melanoma
  GI50: 2.99 µM
  TGI: > 100 µM

## Oc1ccc2ccccc2c1N=Nc1ccc(Br)cc1
OVCAR-3 ovarian
  TGI: > 100 µM
786-0 renal
  TGI: > 100 µM
SF-268 CNS
  TGI: > 100 µM
SF-295 CNS
  TGI: > 100 µM
CCRF-CEM leukemia
  TGI: > 100 µM
SK-MEL-28 melanoma
  TGI: > 100 µM
SW-620 colon
  TGI: > 100 µM
TK-10 renal
  TGI: > 100 µM
MDA-MB-435
  TGI: > 100 µM
SK-MEL-5 melanoma
  TGI: > 100 µM

## CCc1c(Cl)c(C)cc(O)c1Cl
OVCAR-3 ovarian
  TGI: > 100 µM
786-0 renal
  TGI: > 100 µM
SF-268 CNS
  TGI: > 100 µM
SF-295 CNS
  TGI: > 100 µM
CCRF-CEM leukemia
  TGI: 91.7 µM
SK-MEL-28 melanoma
  TGI: > 100 µM
SW-620 colon
  TGI: 47.9 µM
TK-10 renal
  TGI: > 100 µM
MDA-MB-435
  TGI: > 100 µM
SK-MEL-5 melanoma
  TGI: 28.6 µM

## Cn1c(Nc2ccc(C(F)(F)F)cc2)nc2cc(Oc3ccnc(-c4ncc(C(F)(F)F)[nH]4)c3)ccc21
OVCAR-3 ovarian
  GI50: 1.54 µM
  TGI: 7.54 µM
786-0 renal
  GI50: 2.22 µM
  TGI: 13.9 µM
SF-268 CNS
  GI50: 0.966 µM
  TGI: 14.5 µM
SF-295 CNS
  GI50: 0.402 µM
  TGI: 11.8 µM
CCRF-CEM leukemia
  GI50: 0.251 µM
  TGI: 5.17 µM
SK-MEL-28 melanoma
  GI50: 0.126 µM
  TGI: 4.79 µM
SW-620 colon
  GI50: 0.578 µM
  TGI: 12.7 µM
TK-10 renal
  GI50: 2.91 µM
  TGI: 16.2 µM
MDA-MB-435
  GI50: 0.0774 µM
  TGI: 9.44 µM
SK-MEL-5 melanoma
  GI50: 0.34 µM
  TGI: 4.96 µM

## CC(C(=O)O)c1cccc(Oc2ccccc2)c1 (stereo unspecified)
OVCAR-3 ovarian
  GI50: > 100 µM
  TGI: > 100 µM
786-0 renal
  GI50: > 100 µM
  TGI: > 100 µM
SF-268 CNS
  GI50: > 100 µM
  TGI: > 100 µM
SF-295 CNS
  GI50: > 100 µM
  TGI: > 100 µM
CCRF-CEM leukemia
  GI50: > 100 µM
  TGI: > 100 µM
SK-MEL-28 melanoma
  GI50: > 100 µM
  TGI: > 100 µM
SW-620 colon
  GI50: > 100 µM
  TGI: > 100 µM
TK-10 renal
  GI50: > 100 µM
  TGI: > 100 µM
MDA-MB-435
  GI50: > 100 µM
  TGI: > 100 µM
SK-MEL-5 melanoma
  GI50: > 100 µM
  TGI: > 100 µM

## Oc1ccc(Nc2c3ccccc3nc3occ(Cl)c23)cc1
OVCAR-3 ovarian
  GI50: 3.12 µM
  TGI: 8.76 µM
786-0 renal
  GI50: 12.9 µM
  TGI: > 100 µM
SF-268 CNS
  GI50: 4.26 µM
  TGI: > 100 µM
SF-295 CNS
  GI50: 4.65 µM
  TGI: > 100 µM
CCRF-CEM leukemia
  GI50: 1.42 µM
  TGI: 6.12 µM
SK-MEL-28 melanoma
  GI50: 6.18 µM
  TGI: 63.8 µM
SW-620 colon
  GI50: 4.71 µM
  TGI: > 100 µM
TK-10 renal
  GI50: 6.46 µM
  TGI: 50.8 µM
MDA-MB-435
  GI50: 1.53 µM
  TGI: 6.51 µM
SK-MEL-5 melanoma
  GI50: 3.92 µM
  TGI: 18.3 µM

## O=[N+]([O-])c1ccc(CI)cc1
OVCAR-3 ovarian
  GI50: 2.4 µM
  TGI: 5.41 µM
786-0 renal
  GI50: 4.71 µM
  TGI: 16.4 µM
SF-268 CNS
  GI50: 4.02 µM
  TGI: 15.2 µM
SF-295 CNS
  GI50: 3.76 µM
  TGI: 13.7 µM
CCRF-CEM leukemia
  GI50: 0.518 µM
  TGI: 2.59 µM
SK-MEL-28 melanoma
  GI50: 5.15 µM
  TGI: 18.2 µM
SW-620 colon
  GI50: 0.803 µM
  TGI: 3.22 µM
TK-10 renal
  GI50: 1.85 µM
  TGI: 3.32 µM
MDA-MB-435
  GI50: 2.89 µM
  TGI: 9.62 µM
SK-MEL-5 melanoma
  GI50: 1.99 µM
  TGI: 4.41 µM

## Nc1c(C(=O)c2ccccc2)cnn1-c1ccc(F)cc1
OVCAR-3 ovarian
  GI50: > 25 µM
  TGI: > 25 µM
786-0 renal
  GI50: > 25 µM
  TGI: > 25 µM
SF-268 CNS
  GI50: > 25 µM
  TGI: > 25 µM
SF-295 CNS
  GI50: > 25 µM
  TGI: > 25 µM
CCRF-CEM leukemia
  GI50: > 25 µM
  TGI: > 25 µM
SK-MEL-28 melanoma
  GI50: > 25 µM
  TGI: > 25 µM
SW-620 colon
  GI50: > 25 µM
  TGI: > 25 µM
TK-10 renal
  GI50: > 25 µM
  TGI: > 25 µM
MDA-MB-435
  GI50: > 25 µM
  TGI: > 25 µM
SK-MEL-5 melanoma
  GI50: > 25 µM
  TGI: > 25 µM

## COC(=O)C1=CN(CC2=CC(=O)C(C)=CC2=O)C=C(C(=O)OC)C1c1cccc(OC)c1
OVCAR-3 ovarian
  GI50: 3.51 µM
  TGI: 12.3 µM
786-0 renal
  GI50: > 22.5 µM
  TGI: > 41 µM
SF-268 CNS
  GI50: 12.1 µM
  TGI: 30.8 µM
SF-295 CNS
  GI50: 10.3 µM
  TGI: 26.4 µM
CCRF-CEM leukemia
  GI50: 2.38 µM
  TGI: > 21.9 µM
SK-MEL-28 melanoma
  GI50: 25 µM
  TGI: 79 µM
SW-620 colon
  GI50: 2.2 µM
  TGI: 4.81 µM
TK-10 renal
  GI50: 12.2 µM
  TGI: 25.9 µM
MDA-MB-435
  GI50: 5.8 µM
  TGI: 16.2 µM
SK-MEL-5 melanoma
  GI50: 14.4 µM
  TGI: 42.2 µM

## COc1ccc2c(c1)c[n+](C)c1c3cc(OC)c(OC)cc3ccc21
OVCAR-3 ovarian
  TGI: 15 µM
786-0 renal
  GI50: 2.85 µM
  TGI: 15.9 µM
SF-268 CNS
  TGI: 9.9 µM
SF-295 CNS
  GI50: 5.06 µM
  TGI: 17.8 µM
CCRF-CEM leukemia
  GI50: 0.559 µM and 1.42 µM
  TGI: > 100 µM and 12.4 µM
SK-MEL-28 melanoma
  GI50: 1.7 µM and 13 µM
  TGI: 3.45 µM and 27.3 µM
SW-620 colon
  TGI: 3.13 µM and 3.76 µM
TK-10 renal
  GI50: 2.13 µM and 11.2 µM
  TGI: 5.37 µM and 24 µM
MDA-MB-435
  GI50: 1.51 µM and 5.1 µM
  TGI: 2.98 µM and 20 µM
SK-MEL-5 melanoma
  GI50: 4.08 µM and 8.31 µM
  TGI: 15.1 µM and 20.2 µM

## BrCc1cccc(C[P+](c2ccccc2)(c2ccccc2)c2ccccc2)c1
OVCAR-3 ovarian
  GI50: 10.8 µM
  TGI: > 100 µM
786-0 renal
  GI50: 46.2 µM
  TGI: > 100 µM
SF-268 CNS
  GI50: 40.4 µM
  TGI: > 100 µM
SF-295 CNS
  GI50: 35.5 µM
  TGI: > 100 µM
CCRF-CEM leukemia
  GI50: 13.3 µM
  TGI: > 100 µM
SK-MEL-28 melanoma
  GI50: 21.7 µM
  TGI: > 100 µM
SW-620 colon
  GI50: 22.3 µM
  TGI: > 100 µM
TK-10 renal
  GI50: 12.5 µM
  TGI: > 100 µM
MDA-MB-435
  GI50: 8.38 µM
  TGI: > 100 µM
SK-MEL-5 melanoma
  GI50: 5.14 µM
  TGI: 24 µM

## COc1ccc(C2=C(c3ccc(OC)cc3)C(=O)N3CCCC3C2)cc1 (stereo unspecified)
OVCAR-3 ovarian
  GI50: 11.7 µM
  TGI: > 100 µM
786-0 renal
  GI50: 9.92 µM
  TGI: > 100 µM
SF-268 CNS
  GI50: 16.4 µM
  TGI: > 100 µM
SF-295 CNS
  GI50: 9.26 µM
  TGI: > 100 µM
CCRF-CEM leukemia
  GI50: 5.49 µM
  TGI: > 48.2 µM
SK-MEL-28 melanoma
  GI50: 54.6 µM
  TGI: > 100 µM
SW-620 colon
  GI50: 15.4 µM
  TGI: > 100 µM
TK-10 renal
  GI50: 22.8 µM
  TGI: > 100 µM
MDA-MB-435
  GI50: 12.3 µM
  TGI: > 100 µM
SK-MEL-5 melanoma
  GI50: 10.1 µM
  TGI: 84.3 µM

## O=C1c2cc3c(cc2-c2c1c1cc(Cl)c(Cl)cc1c(=O)n2C[C@H](O)CO)OCO3
OVCAR-3 ovarian
  GI50: 0.0157 µM
  TGI: 0.0769 µM
786-0 renal
  GI50: < 0.01 µM
  TGI: 0.187 µM
SF-268 CNS
  GI50: < 0.01 µM
  TGI: 2.7 µM
SF-295 CNS
  GI50: < 0.01 µM
CCRF-CEM leukemia
  GI50: < 0.01 µM
  TGI: 19.1 µM
SK-MEL-28 melanoma
  GI50: 0.0429 µM
  TGI: 8.62 µM
SW-620 colon
  GI50: < 0.01 µM
  TGI: 2.08 µM
TK-10 renal
  GI50: 0.0578 µM
  TGI: 0.934 µM
MDA-MB-435
  GI50: 0.0111 µM
  TGI: 0.168 µM
SK-MEL-5 melanoma
  GI50: < 0.01 µM
  TGI: 0.0134 µM
